Test results taken from patent US20220089600A1, “TGFß INHIBITOR AND PRODRUGS” (FUNDACIÓ INSTITUT DE RECERCA BIOMÈDICA (IRB BARCELONA), priority 2018, published 2022).

Tests used:
MTO129 liver metastases = assay: Mouse liver metastasis initiation/formation assay with MTOs; format: in vivo; conditions: for Efficacy (Cure rate): two weeks, mice with no metastases
From the text: Mouse tumor organoids (MTOs) are derived from compound transgenic mice (conditional mutations in Apc, Kras, Trp53 and Tgfbr2, as well as bearing Lgr5-EGFP/CreER^T2) of the C57BL6/J strain and cultured as described in Tauriello et al. 2018 Nature 554(7693): 538-543. doi: 10.1038/nature25492. Organoids are tumor epithelial cells grown in a 3D matrix where they adopt an organotypic architecture, typically as spheroids with a lumen. In this way, cells retain a relatively normal polarity (which means that the outside surface, inside/luminal surface and cell-cell contacts are individually specialized), which is more physiological than in conventional 2D cell culture.
In all experiments described in present invention MTO129 were used (Tauriello et al. Nature. 2018).
In patients, treatment doses were reduced to 80 to 150 mg b.i.d in a regime of 14 days on-14 days off.
MTOs expressing a luciferase reporter were measured by bioluminescence imaging, using retroorbital injection of 50 μl 15 mg/ml D-luciferin potassium salt (Resem BV). Photons per second from the region spanning thorax/abdomen were quantified and normalized to the measure at the day of injection.
Control mice were treated with 150 μl of vehicle.
In the experiment shown in FIG. 13, potency of the indicated compounds to inhibit metastasis formation was assessed. Mice were treatments with indicated compounds started two days after MTO129 transplantation and continued during two weeks. Mice were sacrificed at 4 weeks post transplantation and liver metastases (LiMs) were counted by eye on fixed livers.

ACVR2B = molecular target: T1, ACVR2B (Homo sapiens, UniProt Q13705); assay: KINOMEscan affinity, competition binding
T1 construct: purchased Eurofins (KINOMEscan service)
Protocol: (§1) The affinity, measured as Kd (dissociation constants), of the compound of formula I for the ALK family was determined by using the KINOMEscan™ Technology from Eurofins. Selectivity in front of ALK1 (ACVRL1), ALK2 (ACVR1), ALK3 (BMPR1A), ALK4 (ACVR1B), ALK6 (BMPR1B), ACVR2B and TGFβR2 was determined.
(§2) The KINOMEscan screening platform employs an active-site directed competition binding assay to quantitatively measure interactions between test compounds and kinases.
(§3) The assay is performed by combining three components: DNA-tagged kinase; immobilized ligand; and a test compound. The ability of the test compound to compete with the immobilized ligand is measured via quantitative PCR of the DNA tag.
(§4) Test compounds were prepared as 111× stocks in 100% DMSO. Kds were determined using an 11-point 3-fold compound dilution series with three DMSO control points being the top concentration 30 μM. […] The compounds were then diluted directly into the assays such that the final concentration of DMSO was 0.9%. All reactions performed in polypropylene 384-well plate. Each was a final volume of 0.02 ml. […] The beads were then re-suspended in elution buffer (1×PBS, 0.05% Tween 20, 0.5 μM non-biotinylated affinity ligand) and incubated at room temperature with shaking for 30 minutes. The kinase concentration in the eluates was measured by qPCR.
(§5) Compounds that bind the kinase active site and directly (sterically) or indirectly (allosterically) prevent kinase binding to the immobilized ligand, will reduce the amount of kinase captured on the solid support. […] Dissociation constants (Kds) for test compound-kinase interactions are calculated by measuring the amount of kinase captured on the solid support as a function of the test compound concentration.

ALK2 (ACVR1) = molecular target: T2, ALK2 (ACVR1) (Homo sapiens, UniProt Q04771); assay: KINOMEscan affinity, competition binding
T2 construct: purchased Eurofins (KINOMEscan service)
T2 sequence (Q04771 21-509): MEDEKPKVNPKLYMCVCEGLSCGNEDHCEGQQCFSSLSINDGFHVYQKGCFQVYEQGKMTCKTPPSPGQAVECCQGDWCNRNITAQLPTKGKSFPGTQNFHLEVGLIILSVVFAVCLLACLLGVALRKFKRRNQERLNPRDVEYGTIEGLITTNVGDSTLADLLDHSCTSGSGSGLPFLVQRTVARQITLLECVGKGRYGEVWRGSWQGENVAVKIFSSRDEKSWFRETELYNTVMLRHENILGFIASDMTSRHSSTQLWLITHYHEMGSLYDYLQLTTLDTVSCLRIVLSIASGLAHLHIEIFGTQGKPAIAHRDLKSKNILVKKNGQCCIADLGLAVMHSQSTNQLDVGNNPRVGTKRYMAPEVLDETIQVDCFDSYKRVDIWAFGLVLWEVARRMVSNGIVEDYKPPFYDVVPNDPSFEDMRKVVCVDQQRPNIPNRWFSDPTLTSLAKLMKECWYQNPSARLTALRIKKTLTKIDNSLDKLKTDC
Protocol: as §1, §2, §3, §4, §5

ALK3 (BMPR1A) = molecular target: T3, ALK3 (BMPR1A) (Homo sapiens, UniProt P36894); assay: KINOMEscan affinity, competition binding
T3 construct: purchased Eurofins (KINOMEscan service)
Protocol: as §1, §2, §3, §4, §5

TGFBR2 = molecular target: T4, TGFBR2 (Homo sapiens, UniProt P37173); assay: KINOMEscan affinity, competition binding
T4 construct: purchased Eurofins (KINOMEscan service)
Protocol: as §1, §2, §3, §4, §5

ALK1 (ACVRL1) = molecular target: T5, ALK1 (ACVRL1) (Homo sapiens, UniProt P37023); assay: KINOMEscan affinity, competition binding
T5 construct: purchased Eurofins (KINOMEscan service)
Protocol: as §1, §2, §3, §4, §5

ALK6 (BMPR1B) = molecular target: T6, ALK6 (BMPR1B) (Homo sapiens, UniProt O00238); assay: KINOMEscan affinity, competition binding
T6 construct: purchased Eurofins (KINOMEscan service)
Protocol: as §1, §2, §3, §4, §5

T1 sequence (Q13705 19-512): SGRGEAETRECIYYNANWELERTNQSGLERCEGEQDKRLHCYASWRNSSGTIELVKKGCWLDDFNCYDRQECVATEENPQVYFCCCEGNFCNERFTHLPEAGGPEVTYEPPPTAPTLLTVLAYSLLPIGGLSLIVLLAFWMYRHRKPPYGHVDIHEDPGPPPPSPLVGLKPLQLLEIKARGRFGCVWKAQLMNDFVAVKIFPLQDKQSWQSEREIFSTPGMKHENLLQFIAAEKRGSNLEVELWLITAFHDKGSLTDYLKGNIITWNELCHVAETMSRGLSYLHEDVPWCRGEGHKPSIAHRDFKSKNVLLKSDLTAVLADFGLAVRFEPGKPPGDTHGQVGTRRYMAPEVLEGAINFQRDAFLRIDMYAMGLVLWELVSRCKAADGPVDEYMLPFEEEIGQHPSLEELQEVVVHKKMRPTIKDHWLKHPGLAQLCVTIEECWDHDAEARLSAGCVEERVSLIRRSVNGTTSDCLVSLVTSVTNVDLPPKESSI
T3 sequence (P36894 24-532): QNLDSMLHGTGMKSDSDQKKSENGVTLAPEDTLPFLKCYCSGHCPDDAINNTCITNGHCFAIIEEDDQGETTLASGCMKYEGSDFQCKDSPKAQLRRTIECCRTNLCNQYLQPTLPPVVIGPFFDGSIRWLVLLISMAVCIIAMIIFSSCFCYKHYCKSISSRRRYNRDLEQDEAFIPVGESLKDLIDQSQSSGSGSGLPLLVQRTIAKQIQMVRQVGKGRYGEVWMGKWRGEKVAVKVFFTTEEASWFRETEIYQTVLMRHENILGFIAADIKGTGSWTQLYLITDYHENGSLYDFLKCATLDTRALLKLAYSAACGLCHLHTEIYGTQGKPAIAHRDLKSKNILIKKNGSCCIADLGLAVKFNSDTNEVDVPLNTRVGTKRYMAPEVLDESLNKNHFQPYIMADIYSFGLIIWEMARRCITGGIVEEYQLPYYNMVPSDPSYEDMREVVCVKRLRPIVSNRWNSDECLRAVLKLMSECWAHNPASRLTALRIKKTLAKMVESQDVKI
T5 sequence (P37023 22-503): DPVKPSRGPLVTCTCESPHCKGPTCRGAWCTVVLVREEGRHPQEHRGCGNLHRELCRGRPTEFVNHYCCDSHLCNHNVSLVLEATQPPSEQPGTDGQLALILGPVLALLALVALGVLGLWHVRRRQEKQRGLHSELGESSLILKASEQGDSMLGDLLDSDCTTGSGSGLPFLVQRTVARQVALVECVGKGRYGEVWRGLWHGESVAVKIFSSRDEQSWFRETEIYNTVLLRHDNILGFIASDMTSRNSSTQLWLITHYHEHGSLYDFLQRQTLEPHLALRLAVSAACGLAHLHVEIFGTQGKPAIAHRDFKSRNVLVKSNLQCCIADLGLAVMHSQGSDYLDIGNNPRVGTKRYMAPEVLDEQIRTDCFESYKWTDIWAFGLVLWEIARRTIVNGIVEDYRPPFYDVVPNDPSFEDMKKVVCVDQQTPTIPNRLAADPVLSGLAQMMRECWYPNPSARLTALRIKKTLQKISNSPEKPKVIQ
T4 sequence (P37173 23-567): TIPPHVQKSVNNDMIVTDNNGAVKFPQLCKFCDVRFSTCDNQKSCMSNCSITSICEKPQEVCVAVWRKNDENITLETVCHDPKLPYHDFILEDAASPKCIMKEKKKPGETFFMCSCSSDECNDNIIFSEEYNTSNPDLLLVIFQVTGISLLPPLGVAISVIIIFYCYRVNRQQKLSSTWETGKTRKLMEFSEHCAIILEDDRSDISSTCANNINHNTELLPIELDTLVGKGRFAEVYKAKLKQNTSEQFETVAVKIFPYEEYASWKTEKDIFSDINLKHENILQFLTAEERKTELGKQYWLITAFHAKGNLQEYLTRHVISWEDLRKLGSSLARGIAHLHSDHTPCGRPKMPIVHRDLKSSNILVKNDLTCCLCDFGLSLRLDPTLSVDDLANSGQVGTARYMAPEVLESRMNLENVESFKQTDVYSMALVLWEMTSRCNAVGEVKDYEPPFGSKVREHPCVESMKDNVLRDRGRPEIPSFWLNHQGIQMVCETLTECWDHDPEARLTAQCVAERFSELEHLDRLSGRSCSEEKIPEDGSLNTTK
T6 sequence (O00238 14-502): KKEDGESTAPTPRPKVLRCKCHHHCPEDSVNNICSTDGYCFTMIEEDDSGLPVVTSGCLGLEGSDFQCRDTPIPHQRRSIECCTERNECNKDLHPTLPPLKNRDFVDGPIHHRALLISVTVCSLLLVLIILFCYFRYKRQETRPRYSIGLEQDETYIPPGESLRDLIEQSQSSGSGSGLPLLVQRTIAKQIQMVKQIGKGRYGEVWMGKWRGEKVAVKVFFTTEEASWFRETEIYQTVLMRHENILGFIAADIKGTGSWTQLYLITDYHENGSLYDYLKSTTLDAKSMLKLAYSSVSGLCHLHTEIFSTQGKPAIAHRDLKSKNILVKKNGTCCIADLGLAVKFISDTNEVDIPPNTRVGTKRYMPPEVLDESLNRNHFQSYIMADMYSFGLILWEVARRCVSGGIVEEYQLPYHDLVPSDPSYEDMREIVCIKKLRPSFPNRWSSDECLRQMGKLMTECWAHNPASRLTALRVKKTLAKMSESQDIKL

`Cc1cccc(-c2nn3c(c2-c2ccnc4ccc(O)cc24)CCC3)n1` [compound of formula I, 4-(2-(6-methylpyridin-2-yl)-5,6-dihydro-4H-pyrrolo[1,2-b]pyrazol-3-yl)quinolin-6-ol] was tested, and the “Efficacy (Cure rate)” value (MTO129 liver metastases; 0.3x dose) was roughly 90%, the “Efficacy (Cure rate)” value (MTO129 liver metastases; 1x dose) was roughly 90% and the “Efficacy (Cure rate)” value (MTO129 liver metastases; 3x dose) was 100%. For the same compound, the “Efficacy (Cure rate)” value (MTO129 liver metastases; 9x dose) was 100%, the “liver tumor count (LiMs) compared to galunisertib” value (MTO129 liver metastases; FIG. 3, 0.3× to 9× doses) was “significant lower amount of liver tumors” and the “metastatic tumor growth inhibitory capacity (bioluminescence)” value (MTO129 liver metastases; FIG. 4, 0.3× dose, day 3 until day 14) was “effective”. The “activity in preventing liver metastasis formation, in words” value (MTO129 liver metastases; FIG. 13, 0.3× dose (21.25 mg/Kg b.i.d)) was “still effective”, the “activity in preventing liver metastasis formation, in words” value (MTO129 liver metastases; FIG. 13, 1× dose) was “significant improved activity” and the “effective dose, fold lower than the effective Galunisertib dose” value (MTO129 liver metastases; in vivo experiments) was 10 fold. For the same compound, the “effective dose (>50% efficacy)” value (MTO129 liver metastases; oral, divided b.i.d.) was 42.5 mg/kg/day, the Selectivity improvement (ACVR2B; (I) versus Galunisertib) was 1.2 and the “Selectivity against ALK5” value (ACVR2B; ACVR2B versus ALK5) was 5.0. The “selectivity for ALK5 against ACVR2B” value (ACVR2B; KINOMEscan) was 5 fold, the Selectivity improvement (ALK2 (ACVR1); (I) versus Galunisertib) was 1.8 and the “Selectivity against ALK5” value (ALK2 (ACVR1); ALK2 versus ALK5) was 375. The “selectivity for ALK5 against ALK2” value (ALK2 (ACVR1); KINOMEscan) was “greater than 300 fold”, the Selectivity improvement (ALK3 (BMPR1A); (I) versus Galunisertib) was 3.5 and the “Selectivity against ALK5” value (ALK3 (BMPR1A); ALK3 versus ALK5) was 345. The “selectivity for ALK5 against ALK3” value (ALK3 (BMPR1A); KINOMEscan) was “greater than 300 fold”, the Selectivity improvement (TGFBR2; (I) versus Galunisertib) was 83 and the “selectivity for ALK5 against TGFBR2” value (TGFBR2; KINOMEscan) was 100 fold. The “Selectivity against ALK5” value (TGFBR2; TGFBR2 versus ALK5) was 100, the Selectivity improvement (ALK1 (ACVRL1); (I) versus Galunisertib) was 3.8 and the “Selectivity against ALK5” value (ALK1 (ACVRL1); ALK1 versus ALK5) was 550. For the same compound, the “selectivity for ALK5 against ALK1” value (ALK1 (ACVRL1); KINOMEscan) was “greater than 300 fold”, the Selectivity improvement (ALK6 (BMPR1B); (I) versus Galunisertib) was 2.9 and the “Selectivity against ALK5” value (ALK6 (BMPR1B); ALK6 versus ALK5) was 8.0. For the same compound, the “selectivity for ALK5 against ALK6” value (ALK6 (BMPR1B); KINOMEscan) was 8 fold.
